PubChem BioAssay (NCI)
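Five concentrations, 48 hours, 96-well plates. Definition used: TGI = concentration required for complete inhibition of growth.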

Columns and labels:
Assay in all cases: growth of human tumour cells (NCI), 48 h
SK-MEL-2 melanoma = system: SK-MEL-2 melanoma
SK-MEL-28 melanoma = system: SK-MEL-28 melanoma
NCI-H23 lung = system: NCI-H23 lung
OVCAR-8 ovarian = system: OVCAR-8 ovarian
SF-295 CNS = system: SF-295 CNS
HOP-62 NSCLC = system: HOP-62 NSCLC
KM12 colon = system: KM12 colon
T-47D breast = system: T-47D breast
HL-60(TB) leukemia = system: HL-60(TB) leukemia
A498 renal = system: A498 renal

Structure (SMILES)	TGI (SK-MEL-2 melanoma) [µM]	TGI (SK-MEL-28 melanoma) [µM]	TGI (NCI-H23 lung) [µM]	TGI (OVCAR-8 ovarian) [µM]	TGI (SF-295 CNS) [µM]	TGI (HOP-62 NSCLC) [µM]	TGI (KM12 colon) [µM]	TGI (T-47D breast) [µM]	TGI (HL-60(TB) leukemia) [µM]	TGI (A498 renal) [µM]
COc1cccc(NC(=O)CC(=O)NNCC(=O)Nc2nnc(-c3ccc(N(CCC#N)S(=O)(=O)c4ccccc4)cc3)s2)c1	> 100	> 100	> 100	> 100	> 100	> 100	> 100			
COc1cc2c(cc1C)NC(=O)/C2=C\c1ccncc1	10.1	84.3	9.28	5.92	19.1	22.8	12.5	16.8	> 100	
COc1cc(/C=N\NC(=O)C[N+](C)(C)C)cc(OC)c1OC		> 10	> 10	> 10	> 10	> 10	> 10	> 10	> 10	
CN(C)C(=O)C(F)(F)C(c1ccc(Br)cc1)C1C(=O)N(C)C(=O)N(C)C1=O (stereo not given)	> 100	> 100	> 100		> 100	> 100	> 100	> 100		> 100
Oc1ccc(Cl)cc1C1=N/C(=N\C/N=C2\N=C(c3cc(Cl)ccc3O)CC(c3ccccc3)N2)NC(c2ccccc2)C1 (stereo not given)	> 100	> 100	> 100	> 100	> 100	> 100	> 100		> 100	> 100
O=C(O)c1cc(Cl)cc2c1NC1(N2)C(=O)Nc2ccccc21 (stereo not given)	> 100	> 100	> 100	> 100	> 100	> 100	> 100	> 100		> 100
CN1Cc2c(nc(-c3ccc(Br)cc3)c[n+]2[O-])N(C)C1	> 100	> 100	> 100	> 100	> 100	> 100	> 100		> 100	> 100
CCOC(=O)c1c(N2CCOCC2)[nH]c(=O)c(C(c2cccs2)c2c(O)c(C(=O)OCC)c(N3CCOCC3)[nH]c2=O)c1O	> 100	> 100	> 100	> 100	> 100	> 100	> 100	> 100		> 100
CC(=O)O[C@H]1CN(S(=O)(=O)c2ccc(C)cc2)C[C@@H]1C1CCCCC1	37.7	59	> 100	73.2	32	> 100	36.3	> 100		> 100
N#CC1(c2ccccc2)CCN(C2(c3ccccc3)CCCCC2)CC1	> 100	> 100	> 100	> 100	> 100	> 100	> 100	> 100	> 100	
CCN1CCCC(Nc2cc(C)nc(/N=C(/N)Nc3ccc(Cl)c(Cl)c3)n2)C1 (stereo not given)	4.04	3.34	4.81		2.41	2.88	3.46		1.33	
O=c1[nH]c2cc3cccnc3c(Cl)c2nc1CBr			32.2	44.4	54.1	29.4	33.3	28.3	55.2	
